{
  "source": "patent US11820832B2",
  "about": "“Bispecific HER2 and CD3 binding molecules” (MEMORIAL SLOAN KETTERING CANCER CENTER, priority 2014, dated 2023)",
  "key": {"[1]": {"system": "HeLa cervical carcinoma cells", "assay": "Cell proliferation assay (WST-8)", "type": "cell-based, human", "settings": "10 nM kinase inhibitors, 10 μg/mL antibodies", "protocol": "(§1) Cell proliferation was determined using an ELISA plate reader and the WST-8 kit (Dojindo technologies) following the manufacturer's instructions and using the formula: % survival rate=(Sample-Background)/(Negative control-Background). Lapatinib (MSKCC pharmacy) was ground using a mortar and pestle and suspended in DMSO as previously described. To determine statistical significance, the results were analyzed using one-way ANOVA using Prism 6.0.\n(§2) For cell proliferation assays, 5,000 tumor cells were plated using RPMI-1640 supplemented with 10% FBS in a 96 well plate for 36 hours before being treated with lapatinib or the antibodies at the specified concentrations. Cell proliferation was determined using an ELISA plate reader and the WST-8 kit (Dojindo technologies) following the manufacturer's instructions and using the formula: % survival rate=(Sample-Background)/(Negative control-Background). Lapatinib (Memorial Sloan Kettering Cancer Center pharmacy) was ground using a mortar and pestle and suspended in DMSO as previously described (Chen et al., 2012, Molecular cancer therapeutics 11:660-669). To determine statistical significance, the results were analyzed using one-way ANOVA using Prism 6.0.\n(§3) For tumor cell proliferation, 5,000 tumor cells were plated using RPMI-1640 supplemented with 10% fetal bovine serum (“FBS”) in a 96 well plate for 36 hours before being treated with—kinase inhibitors or the antibodies at the specified concentration. Cell proliferation was determined using the cell counting WST-8 kit (Dojindo technologies) following the manufacturer's instructions and using the formula: % survival rate=(Sample-Background)/(Negative control-Background). Lapatinib was ground using a mortar and pestle and suspended in DMSO as previously described (Chen et al., Molecular cancer therapeutics 2012; 11:660-9). To determine statistical significance, the results were analyzed using one-way ANOVA using Prism 6.0."}, "SCCHN cell line PCI-30": {"system": "SCCHN cell line PCI-30", "assay": "Cell proliferation assay (WST-8)", "type": "cell-based, human", "settings": "10 nM kinase inhibitors, 10 μg/mL antibodies", "protocol": "as §1, §2, §3"}, "U2OS osteosarcoma cells": {"system": "U2OS osteosarcoma cells", "assay": "Cell proliferation assay (WST-8)", "type": "cell-based, human", "settings": "10 nM kinase inhibitors, 10 μg/mL antibodies", "protocol": "as §1, §2, §3"}, "[2]": {"system": "HeLa cervical cancer cells", "assay": "HER2-BsAb redirected T cell cytotoxicity, 51Cr release assay", "type": "cell-based, human", "settings": "pretreatment with lapatinib", "protocol": "(§4) The ^51Cr release assay was performed with effector T cells cultured in vitro in the presence of anti-CD3 and anti-CD28 for about 14 days. […] 5000 target cells/well were mixed with 50,000 effector cells (E:T=10:1) and BsAb antibodies in 96-well polystyrene round-bottom plates (BD Biosciences) to a final volume of 250 μl/well. The plates were incubated at 37° C. for 4 h. […] Percentage of specific release was calculated using the formula: (experimental cpm−background cpm)/(total cpm−background cpm)×100%, where cpm represented counts per minute of ^51Cr released. […] EC50 was calculated using SigmaPlot software.\n(§5) Cell cytotoxicity was assayed by ^51Cr release as previously described (Xu et al., Cancer immunology research 2015; 3:266-77), and EC50 was calculated using SigmaPlot software. Effector PBMC cells were purified from buffy coats purchased from the New York Blood Center. ATCs were first purified from human PBMC using Pan T cell isolation kit, and then activated and expanded for approximately 14 days with CD3/CD28 Dynabeads (Invitrogen) according to manufacturer's protocol."}, "[3]": {"system": "trastuzumab-sensitive breast carcinoma cell line SKBR3", "assay": "Cell proliferation assay (WST-8)", "type": "cell-based, human", "settings": "lapatinib 10 nM, 72 hours", "protocol": "as §1, §2, §3"}, "[4]": {"system": "HCC1954 breast cancer xenografts", "assay": "Xenograft, subcutaneous tumor plus intravenous effector cells", "type": "in vivo, DKO mice", "settings": "s.c. HCC1954; for tumor volume changes, PD1/PDL1 blockade resistant model: i.v. PBMC 7.5×10^6 once per week for 2 weeks, 100 μg each twice per week for 4 weeks", "description": "For in vivo therapy studies, BALB-Rag2-/−IL-2R-γc-KO (“DKO”) mice (derived from colony of Dr. Mamoru Ito, CIEA, Kawasaki, Japan; see, e.g., Koo et al., 2009, Expert Rev Vaccines 8:113-20 and Andrade et al., 2011, Arthritis Rheum 63:2764-73) were used. […] Subcutaneous xenografts were created with 5×10^6 cells suspended in Matrigel (Corning Corp, Tewksbury Mass.) and implanted in the flank of DKO mice. Effector peripheral blood mononuclear cell (PBMC) cells were purified from buffy coats purchased from the New York Blood Center. Prior to every experimental procedure, PBMCs were analyzed for their percentage of CD3, CD4, CD8 and CD56 cells to ensure consistency. […] Tumor size was measured using (1) hand-held TM900 scanner (Pieira, Brussels, BE); (2) Calipers; or (3) bioluminescence. Bioluminescence imaging was conducted using the Xenogen In Vivo Imaging System (IVIS) 200 (Caliper LifeSciences). Briefly, mice were injected intravenously with 0.1 mL solution of D-luciferin (Gold Biotechnology; 30 mg/mL stock in PBS). Images were collected 1 to 2 minutes after injection using the following parameters: a 10- to 60-second exposure time, medium binning, and an 8 f/stop. Bioluminescence image analysis was performed using Living Image 2.6 (Caliper LifeSciences).\nFor in vivo therapy studies, BALB-Rag2-/−IL-2R-γc-KO (DKO) mice (derived from colony of Dr. Mamoru Ito, CIEA, Kawasaki, Japan)(Koo et al., Expert Rev Vaccines 2009; 8:113-20; Andrade et al., Arthritis Rheum 2011; 63:2764-73) were used. […] Effector PBMC cells and ATCs were prepared as described above. Prior to every experimental procedure, PBMCs and ATCs were analyzed by FACS for their percentage of CD3, CD4, CD8 and CD56 cells to ensure consistency. […] Tumor size was measured using 1) hand-held TM900 scanner (Pieira, Brussels, BE), 2) Calipers, or 3) Bioluminescence. […]"}, "[5]": {"system": "naïve T cells with or without NCI-N87 tumor cells", "assay": "Cytokine release assay with naive T cells", "type": "cell-based, human", "settings": "16.7 nM antibody, 24 hours", "protocol": "Cytokine release was assayed as previously described (Ahmed et al., Oncolmmunology 2015; 4:e989776), using naïve T cells prepared as described above. T cells (200,000/well) were cultured with or without NCI-N87 tumor cells (10,000/well) for 24 hours before supernatants being harvested for ELISA-based cytokine assay."}, "naïve T cells": {"system": "naïve T cells", "assay": "T cell proliferation assay (WST-8)", "type": "cell-based, human", "settings": "67 nM antibody, absence of tumor targets, 6 days", "protocol": "For T cell proliferation, naïve T cells were purified from human PBMC using Pan T cell isolation kit (Miltenyi Biotec). 2×10^5 purified T cells were mixed with different antibodies in 96-well cell culture plate to a final volume of 250 μl/well. T cells were cultured and maintained in RPMI-1640 supplemented with 10% FBS in 37° C. for 6 days. T cell proliferation was quantitated using the WST-8 kit as described above."}, "CD3": {"target": "CD3 (Homo sapiens, UniProt P07766)", "sequence (P07766 23-126 limits assumed)": "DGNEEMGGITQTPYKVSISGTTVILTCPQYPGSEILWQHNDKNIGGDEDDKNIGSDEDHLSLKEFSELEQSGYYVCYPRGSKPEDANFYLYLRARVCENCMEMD", "assay": "Binding affinity analysis by Biacore (Surface Plasmon Resonance)", "settings": "antigen CD3, Biacore", "protocol": "Binding assays were performed by Surface Plasmon Resonance using Biacore T100 similar as described in Okazaki et al., 2004, J Mol Biol; 336(5): 1239-1249."}, "[6]": {"system": "HER2(+) SCCHN cell line PCI-13", "assay": "Blocking of HER2-BsAb T-cell cytotoxicity by trastuzumab or huOKT3", "type": "cell-based, human", "settings": "0.1 μg/mL HER2-BsAb with 10 μg/mL blocking antibody", "protocol": "as §5"}, "HER2-positive cells": {"system": "HER2-positive cells", "assay": "Blocking of HER2-BsAb induced T cell cytotoxicity", "type": "cell-based, human", "settings": "HER2-positive cells pre-incubated with blocking antibody", "protocol": "as §4"}},
  "data": [
    {"molecule": "C#Cc1cccc(Nc2ncnc3cc(OCCOC)c(OCCOC)cc23)c1", "note": "[erlotinib]", "values": [
      {"measurement": "sensitivity of cells in proliferation assay", "setting": "[1]", "value": "pan-resistant"},
      {"measurement": "sensitivity of cells in proliferation assay", "setting": "SCCHN cell line PCI-30", "value": "resistant"},
      {"measurement": "sensitivity of cells in proliferation assay", "setting": "U2OS osteosarcoma cells", "value": "minimal sensitivity"}
    ]},
    {"molecule": "CS(=O)(=O)CCNCc1ccc(-c2ccc3ncnc(Nc4ccc(OCc5cccc(F)c5)c(Cl)c4)c3c2)o1", "note": "[lapatinib]", "values": [
      {"measurement": "effect of pretreatment on HER2-BsAb mediated cytotoxicity", "setting": "[2]", "value": "increased sensitivity"},
      {"measurement": "sensitivity of cells in proliferation assay", "setting": "[1]", "value": "pan-resistant"},
      {"measurement": "sensitivity of cells in proliferation assay", "setting": "SCCHN cell line PCI-30", "value": "resistant"},
      {"measurement": "sensitivity of cells in proliferation assay", "setting": "U2OS osteosarcoma cells", "value": "minimal sensitivity"},
      {"measurement": "inhibition of cell proliferation (positive control)", "setting": "[3]", "value": "strongest inhibition of cell proliferation"}
    ]},
    {"molecule": "CCOc1cc2ncc(C#N)c(Nc3ccc(OCc4ccccn4)c(Cl)c3)c2cc1NC(=O)/C=C/CN(C)C", "note": "[neratinib]", "values": [
      {"measurement": "sensitivity of cells in proliferation assay", "setting": "[1]", "value": "pan-resistant"},
      {"measurement": "sensitivity of cells in proliferation assay", "setting": "SCCHN cell line PCI-30", "value": "resistant"},
      {"measurement": "sensitivity of cells in proliferation assay", "setting": "U2OS osteosarcoma cells", "value": "minimal sensitivity"}
    ]},
    {"molecule": "Atezolizumab", "values": [
      {"measurement": "tumor volume changes, PD1/PDL1 blockade resistant model", "setting": "[4]", "value": "no effect"}
    ]},
    {"molecule": "Pembrolizumab", "values": [
      {"measurement": "tumor volume changes, PD1/PDL1 blockade resistant model", "setting": "[4]", "value": "no effect"}
    ]},
    {"molecule": "huOKT3 Fab: monovalent Fab prepared from huOKT3 IgG1", "values": [
      {"measurement": "cytokine release in the absence of tumor targets", "setting": "[5]", "value": "background cytokine release"},
      {"measurement": "T cell proliferation", "setting": "naïve T cells", "value": "negligible effects"}
    ]},
    {"molecule": "huOKT3 IgG1-aGlyco: parental aglycosylated huOKT3 IgG1", "values": [
      {"measurement": "Kd", "setting": "CD3", "value": 64.6, "unit": "nM"},
      {"measurement": "koff", "setting": "CD3", "value": 0.109, "unit": "s⁻¹"},
      {"measurement": "kon", "setting": "CD3", "value": "1.68e+06", "unit": "M⁻¹ s⁻¹"}
    ]},
    {"molecule": "huOKT3: humanized OKT3 anti-CD3 IgG1, same variable sequences as in huOKT3 scFv", "values": [
      {"measurement": "blocking of HER2-BsAb mediated T-cell cytotoxicity", "setting": "[6]", "value": "prevented"},
      {"measurement": "tumor growth", "setting": "[4]; i.v. PBMC once a week for 3 weeks, i.v. antibody twice a week for 3 weeks", "value": "only modest effects"},
      {"measurement": "cytokine release in the absence of tumor targets", "setting": "[5]", "value": "substantially more cytokines"},
      {"measurement": "T cell proliferation", "setting": "naïve T cells", "value": "robust T cell proliferation"},
      {"measurement": "blocking of the ability of HER2-BsAb to induce T cell cytotoxicity", "setting": "HER2-positive cells", "value": "blocked"}
    ]}
  ]
}
